Converted amounts (≈) assume the structure as drawn.
What was measured:
S. aureus = experiment: Bacterial inhibition, MIC in brain heart infusion broth; assay type: cell-based; details: Staphylococcus aureus, read-out: MIC (minimal inhibitory concentration)
Source text: (§1) ^a Minimal inhibitory concentration in brain heart infusion broth.

E. coli = experiment: as above; assay type: cell-based; details: Escherichia coli, read-out: MIC (minimal inhibitory concentration)
Source text: as §1

K. pneumoniae = experiment: as above; assay type: cell-based; details: Klebsiella pneumoniae, read-out: MIC (minimal inhibitory concentration)
Source text: as §1

D. penumoniae = experiment: as above; assay type: cell-based; details: read-out: MIC (minimal inhibitory concentration)
Source text: as §1

S. Hemolyticus = experiment: as above; assay type: cell-based; details: read-out: MIC (minimal inhibitory concentration)
Source text: as §1

St. Faecalis = experiment: as above; assay type: cell-based; details: Enterococcus faecalis, read-out: MIC (minimal inhibitory concentration)
Source text: as §1

Ps. aeruginosa = experiment: as above; assay type: cell-based; details: Pseudomonas aeruginosa, read-out: MIC (minimal inhibitory concentration)
Source text: as §1

P. vulgaris = experiment: as above; assay type: cell-based; details: Proteus vulgaris, read-out: MIC (minimal inhibitory concentration)
Source text: as §1

[1] = test system: Reverse Transcriptase of Rauscher Leukemia Virus; experiment: Inhibition of Reverse Transcriptase of Rauscher Leukemia Virus; assay type: biochemical; parameters: Reverse Transcriptase of Rauscher Leukemia Virus % Inhibition: concentration or dose not given beside the values; details: for Reverse Transcriptase of Rauscher Leukemia Virus % Inhibition: 37° C. for 90 minutes (Table 3); for Reverse transcriptase activity, cpm: 37° C. for 90 minutes, control 5396 cpm; for RLV Reverse Transcriptase % Inhibition: at a concentration of 0.25 μmole/ml (Table 4), 90 min
Description: *(The reverse transcriptase activity was measured at 37° C. for 90
(§2) Table 4, below, relates to the activity of compounds of Examples VIII through XVIII as bacterial RNA polymerase inhibitors and as inhibitors of reverse transcriptase when tested in the manner the compounds of Examples I through V as related, supra, in Tables 2 and 3.
**At a concentration of 0.25 μmole/ml.

E. coli RNA Polymerase = E. coli RNA Polymerase (Escherichia coli, UniProt P0A8V2); experiment: E. coli RNA Polymerase Inhibition; assay type: biochemical; details: 0.25 h; for remaining activity at 500 µM: 0.5 μM/ml of compound, room temperature, 15 minutes, control = 100; for inhibition at 500 µM: at a concentration of 0.5 μmole/ml (Table 4)
Sequence of E. coli RNA Polymerase (P0A8V2 whole entry): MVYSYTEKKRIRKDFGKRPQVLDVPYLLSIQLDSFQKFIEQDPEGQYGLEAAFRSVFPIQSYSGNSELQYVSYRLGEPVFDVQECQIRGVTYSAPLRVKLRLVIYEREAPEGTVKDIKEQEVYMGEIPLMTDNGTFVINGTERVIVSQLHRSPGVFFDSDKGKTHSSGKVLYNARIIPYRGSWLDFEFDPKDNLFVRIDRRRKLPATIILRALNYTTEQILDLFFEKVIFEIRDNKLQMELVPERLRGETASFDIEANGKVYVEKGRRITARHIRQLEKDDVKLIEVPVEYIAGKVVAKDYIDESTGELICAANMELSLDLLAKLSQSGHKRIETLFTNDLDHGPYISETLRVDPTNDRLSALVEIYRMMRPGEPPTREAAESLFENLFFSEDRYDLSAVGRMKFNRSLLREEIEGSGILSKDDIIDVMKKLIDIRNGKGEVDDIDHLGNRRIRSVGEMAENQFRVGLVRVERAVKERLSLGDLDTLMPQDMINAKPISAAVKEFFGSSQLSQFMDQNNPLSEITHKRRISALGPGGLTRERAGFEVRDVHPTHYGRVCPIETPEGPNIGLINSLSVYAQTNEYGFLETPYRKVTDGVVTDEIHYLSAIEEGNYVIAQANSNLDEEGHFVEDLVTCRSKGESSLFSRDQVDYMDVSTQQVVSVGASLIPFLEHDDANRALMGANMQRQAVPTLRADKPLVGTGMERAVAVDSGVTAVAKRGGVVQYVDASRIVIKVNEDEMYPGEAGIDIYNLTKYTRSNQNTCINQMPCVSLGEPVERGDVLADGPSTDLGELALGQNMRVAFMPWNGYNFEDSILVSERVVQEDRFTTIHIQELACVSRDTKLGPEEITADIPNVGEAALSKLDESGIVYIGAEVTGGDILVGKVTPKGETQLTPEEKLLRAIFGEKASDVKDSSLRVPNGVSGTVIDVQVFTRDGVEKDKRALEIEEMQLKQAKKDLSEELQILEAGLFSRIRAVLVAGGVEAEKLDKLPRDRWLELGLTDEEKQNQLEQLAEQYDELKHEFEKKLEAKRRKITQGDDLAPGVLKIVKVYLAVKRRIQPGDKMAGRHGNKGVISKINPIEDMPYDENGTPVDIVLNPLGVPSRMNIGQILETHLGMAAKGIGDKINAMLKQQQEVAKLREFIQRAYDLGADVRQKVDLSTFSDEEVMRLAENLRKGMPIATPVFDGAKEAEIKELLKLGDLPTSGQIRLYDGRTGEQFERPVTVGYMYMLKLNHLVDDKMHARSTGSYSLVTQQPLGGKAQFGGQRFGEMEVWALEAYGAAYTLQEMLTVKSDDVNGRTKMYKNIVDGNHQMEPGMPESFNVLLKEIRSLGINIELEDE
Sequence of E. coli RNA Polymerase (P0A8T7 whole entry partner): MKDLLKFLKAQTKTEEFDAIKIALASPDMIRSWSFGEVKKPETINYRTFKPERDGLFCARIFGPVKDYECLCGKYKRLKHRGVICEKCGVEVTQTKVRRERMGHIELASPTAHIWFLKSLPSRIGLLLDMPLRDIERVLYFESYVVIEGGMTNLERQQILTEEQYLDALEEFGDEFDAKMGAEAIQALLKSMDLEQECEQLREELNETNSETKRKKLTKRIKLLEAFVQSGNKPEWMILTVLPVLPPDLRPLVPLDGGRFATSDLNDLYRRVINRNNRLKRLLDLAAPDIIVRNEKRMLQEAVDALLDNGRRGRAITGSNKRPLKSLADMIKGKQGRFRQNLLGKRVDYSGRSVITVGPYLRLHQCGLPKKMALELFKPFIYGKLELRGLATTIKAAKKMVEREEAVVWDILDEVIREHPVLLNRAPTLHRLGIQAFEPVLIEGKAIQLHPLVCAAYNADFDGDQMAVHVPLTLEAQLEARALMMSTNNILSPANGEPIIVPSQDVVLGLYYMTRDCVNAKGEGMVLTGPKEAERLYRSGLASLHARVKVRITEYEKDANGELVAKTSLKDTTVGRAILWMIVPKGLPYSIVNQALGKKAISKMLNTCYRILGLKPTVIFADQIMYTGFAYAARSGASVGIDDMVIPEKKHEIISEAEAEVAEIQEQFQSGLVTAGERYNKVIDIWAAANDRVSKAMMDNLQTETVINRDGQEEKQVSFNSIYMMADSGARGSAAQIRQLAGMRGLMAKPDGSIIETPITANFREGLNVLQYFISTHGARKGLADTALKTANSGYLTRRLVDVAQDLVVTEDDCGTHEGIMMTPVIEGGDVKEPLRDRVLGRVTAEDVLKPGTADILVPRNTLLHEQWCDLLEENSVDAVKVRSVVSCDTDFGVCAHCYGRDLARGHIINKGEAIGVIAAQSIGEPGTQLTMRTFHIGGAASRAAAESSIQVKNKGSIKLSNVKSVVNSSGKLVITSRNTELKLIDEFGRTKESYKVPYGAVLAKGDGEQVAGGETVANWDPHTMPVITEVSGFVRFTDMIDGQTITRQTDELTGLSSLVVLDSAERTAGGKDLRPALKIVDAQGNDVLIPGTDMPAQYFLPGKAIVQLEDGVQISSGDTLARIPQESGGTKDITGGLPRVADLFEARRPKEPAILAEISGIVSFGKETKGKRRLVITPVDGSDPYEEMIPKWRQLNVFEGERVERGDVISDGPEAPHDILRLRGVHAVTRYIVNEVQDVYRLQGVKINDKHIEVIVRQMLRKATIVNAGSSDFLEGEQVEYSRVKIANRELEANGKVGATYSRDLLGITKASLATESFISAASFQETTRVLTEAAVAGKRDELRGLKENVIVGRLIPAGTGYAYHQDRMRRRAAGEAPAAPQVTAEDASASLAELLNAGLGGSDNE
Sequence of E. coli RNA Polymerase (P0A7Z4 whole entry partner): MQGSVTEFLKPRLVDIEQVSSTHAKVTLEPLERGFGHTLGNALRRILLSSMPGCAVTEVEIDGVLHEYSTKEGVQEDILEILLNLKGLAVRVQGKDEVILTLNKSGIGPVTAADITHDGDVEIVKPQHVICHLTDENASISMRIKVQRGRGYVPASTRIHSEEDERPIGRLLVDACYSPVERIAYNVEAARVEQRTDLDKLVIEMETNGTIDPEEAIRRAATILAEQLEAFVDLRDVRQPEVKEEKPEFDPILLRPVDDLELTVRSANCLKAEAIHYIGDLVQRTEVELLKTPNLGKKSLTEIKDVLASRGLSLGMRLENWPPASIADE
Sequence of E. coli RNA Polymerase (P0A800 whole entry partner): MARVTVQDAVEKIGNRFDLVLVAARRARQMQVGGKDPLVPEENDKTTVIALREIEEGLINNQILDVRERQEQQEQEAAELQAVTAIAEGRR
Description: The assay mixtures contained, in a total volume of 0.25 ml: (Tris)HCl
buffer, pH 7.9, 5 μmoles; MgCl2, 1 μmole; mercaptoethanol, 3
μmoles; MpCl2, 0.25 μmole: GTP, UTP, and CTP, 0.1 μmole
polymerase, 0.5 units; and […] of compound. Reactions were run a
room temperature for 15 minutes.
as §2
*At a concentration of 0.5 μmole/ml.

Structure (SMILES): COC1=C2CC(C)CC(OC)C(O)C(C)/C=C(\C)C(OC(N)=O)C(OC)/C=C\C=C(/C)C(=O)NC(=C(C=NC(C)(C)C)C1=O)C2=O (stereo not shown) [Example I]
- MIC (S. aureus): 500 µg/mL (≈ 777 µM)
- MIC (E. coli): 500 µg/mL (≈ 777 µM)
- MIC (K. pneumoniae): 500 µg/mL (≈ 777 µM)
- MIC (D. penumoniae): 250 µg/mL (≈ 388 µM)
- MIC (S. Hemolyticus): 250 µg/mL (≈ 388 µM)
- MIC (St. Faecalis): > 500 µg/mL
- MIC (Ps. aeruginosa): 250 µg/mL (≈ 388 µM)
- MIC (P. vulgaris): 500 µg/mL (≈ 777 µM)
- Reverse Transcriptase of Rauscher Leukemia Virus % Inhibition [1]: 93.0%
- Reverse transcriptase activity, cpm [1]: 376 cpm
- remaining activity at 500 µM (E. coli RNA Polymerase): 99%

Structure (SMILES): COC1=C2CC(C)CC(OC)C(O)C(C)/C=C(\C)C(OC(N)=O)C(OC)/C=C\C=C(/C)C(=O)NC(=C(C=NOC(c3ccccc3)c3ccccc3)C1=O)C2=O (stereo not shown) [III]
- MIC (S. aureus): > 500 µg/mL
- MIC (E. coli): > 500 µg/mL
- MIC (K. pneumoniae): > 500 µg/mL
- MIC (D. penumoniae): 62.5 µg/mL (≈ 81.2 µM)
- MIC (S. Hemolyticus): 31.2 µg/mL (≈ 40.5 µM)
- MIC (St. Faecalis): > 500 µg/mL
- MIC (Ps. aeruginosa): > 500 µg/mL
- MIC (P. vulgaris): > 500 µg/mL
- Reverse Transcriptase of Rauscher Leukemia Virus % Inhibition [1]: 98.6%
- Reverse transcriptase activity, cpm [1]: 75 cpm
- remaining activity at 500 µM (E. coli RNA Polymerase): 84%

Structure (SMILES): COC1=C2CC(C)CC(OC)C(O)C(C)/C=C(\C)C(OC(N)=O)C(OC)/C=C\C=C(/C)C(=O)NC(=C(C=NN3CCN(C)CC3)C1=O)C2=O (stereo not shown) [II]
- MIC (S. aureus): > 500 µg/mL
- MIC (E. coli): 500 µg/mL (≈ 729 µM)
- MIC (K. pneumoniae): 500 µg/mL (≈ 729 µM)
- MIC (D. penumoniae): 500 µg/mL (≈ 729 µM)
- MIC (S. Hemolyticus): 500 µg/mL (≈ 729 µM)
- MIC (St. Faecalis): > 500 µg/mL
- MIC (Ps. aeruginosa): 250 µg/mL (≈ 365 µM)
- MIC (P. vulgaris): 500 µg/mL (≈ 729 µM)
- Reverse Transcriptase of Rauscher Leukemia Virus % Inhibition [1]: 93.4%
- Reverse transcriptase activity, cpm [1]: 357 cpm
- remaining activity at 500 µM (E. coli RNA Polymerase): 106%

Structure (SMILES): CCCCCCCCON=CC1=C2NC(=O)/C(C)=C/C=C\C(OC)C(OC(N)=O)/C(C)=C/C(C)C(O)C(OC)CC(C)CC(=C(OC)C1=O)C2=O (stereo not shown) [IV]
- MIC (S. aureus): > 500 µg/mL
- MIC (E. coli): > 500 µg/mL
- MIC (K. pneumoniae): > 500 µg/mL
- MIC (D. penumoniae): 7.8 µg/mL (≈ 10.9 µM)
- MIC (S. Hemolyticus): 7.8 µg/mL (≈ 10.9 µM)
- MIC (St. Faecalis): > 500 µg/mL
- MIC (Ps. aeruginosa): > 500 µg/mL
- MIC (P. vulgaris): > 500 µg/mL
- Reverse Transcriptase of Rauscher Leukemia Virus % Inhibition [1]: 94.4%
- Reverse transcriptase activity, cpm [1]: 303 cpm
- remaining activity at 500 µM (E. coli RNA Polymerase): 110%

Structure (SMILES): COC1/C=C\C=C(/C)C(=O)Nc2cc3nc4ccccc4nc3c(c2O)CC(C)CC(OC)C(O)C(C)/C=C(\C)C1OC(N)=O (stereo not shown) [VIII, demethoxygeldanazine]
- RLV Reverse Transcriptase % Inhibition [1]: 98%
- inhibition at 500 µM (E. coli RNA Polymerase): 5 to 16%

Structure (SMILES): COC1=C2CC(C)CC(OC)C(O)C(C)/C=C(\C)C(OC(N)=O)C(OC)/C=C\C=C(/C)C(=O)NC(=C(C=NN3CCN(Cc4ccccc4)CC3)C1=O)C2=O (stereo not shown) [V]
- MIC (S. aureus): 500 µg/mL (≈ 656 µM)
- MIC (E. coli): 500 µg/mL (≈ 656 µM)
- MIC (K. pneumoniae): 500 µg/mL (≈ 656 µM)
- MIC (D. penumoniae): 62.5 µg/mL (≈ 82 µM)
- MIC (S. Hemolyticus): 125 µg/mL (≈ 164 µM)
- MIC (St. Faecalis): 500 µg/mL (≈ 656 µM)
- MIC (Ps. aeruginosa): 250 µg/mL (≈ 328 µM)
- MIC (P. vulgaris): 500 µg/mL (≈ 656 µM)
- Reverse Transcriptase of Rauscher Leukemia Virus % Inhibition [1]: 97.1%
- Reverse transcriptase activity, cpm [1]: 154 cpm
- remaining activity at 500 µM (E. coli RNA Polymerase): 88%

Structure (SMILES): COC1/C=C\C=C(/C)C(=O)Nc2cc3nc4ccc(C)cc4oc-3c(c2=O)CC(C)CC(OC)C(O)C(C)/C=C(\C)C1OC(N)=O (stereo not shown) [XIII]
- RLV Reverse Transcriptase % Inhibition [1]: 77%
- inhibition at 500 µM (E. coli RNA Polymerase): 21%

Structure (SMILES): COC1/C=C\C=C(/C)C(=O)Nc2cc3nc4cc(C)ccc4oc-3c(c2=O)CC(C)CC(OC)C(O)C(C)/C=C(\C)C1OC(N)=O (stereo not shown) [XII]
- RLV Reverse Transcriptase % Inhibition [1]: 89%
- inhibition at 500 µM (E. coli RNA Polymerase): 9%

Structure (SMILES): COC1/C=C\C=C(/C)C(=O)Nc2cc3nc4cccc(C)c4oc-3c(c2=O)CC(C)CC(OC)C(O)C(C)/C=C(\C)C1OC(N)=O (stereo not shown) [XIV]
- RLV Reverse Transcriptase % Inhibition [1]: 72%
- inhibition at 500 µM (E. coli RNA Polymerase): 6%

Structure (SMILES): COC1/C=C\C=C(/C)C(=O)Nc2cc3nc4ccccc4oc-3c(c2=O)CC(C)CC(OC)C(O)C(C)/C=C(\C)C1OC(N)=O (stereo not shown) [XI]
- RLV Reverse Transcriptase % Inhibition [1]: 98%
- inhibition at 500 µM (E. coli RNA Polymerase): 61 to 67%

Structure (SMILES): COC(=O)[C@@H](NC(=O)c1ccc(C)c2oc3c4c(=O)c(cc-3nc12)NC(=O)/C(C)=C/C=C\C(OC)C(OC(N)=O)/C(C)=C/C(C)C(O)C(OC)CC(C)C4)[C@@H](C)O (stereo partly shown) [XVIII]
- RLV Reverse Transcriptase % Inhibition [1]: 0%

Structure (SMILES): COC(=O)c1cccc2oc3c4c(=O)c(cc-3nc12)NC(=O)/C(C)=C/C=C\C(OC)C(OC(N)=O)/C(C)=C/C(C)C(O)C(OC)CC(C)C4 (stereo not shown) [XVII]
- RLV Reverse Transcriptase % Inhibition [1]: 0%

Structure (SMILES): COC1/C=C\C=C(/C)C(=O)Nc2cc3nc4cc(Cl)ccc4oc-3c(c2=O)CC(C)CC(OC)C(O)C(C)/C=C(\C)C1OC(N)=O (stereo not shown) [XVI]
- RLV Reverse Transcriptase % Inhibition [1]: 60%

Structure (SMILES): COC1/C=C\C=C(/C)C(=O)Nc2cc3nc4cc(Br)ccc4oc-3c(c2=O)CC(C)CC(OC)C(O)C(C)/C=C(\C)C1OC(N)=O (stereo not shown) [XV]
- RLV Reverse Transcriptase % Inhibition [1]: 82 - 100%
- inhibition at 500 µM (E. coli RNA Polymerase): 60%

Reference: patent US4075339A, “Biologically active compounds” (University of Illinois Foundation, priority 1976, dated 1978)
